Key:
Type in all cases: in vivo
[1] = system: ivy-leaved morning glory (Ipomoea hederacea); assay: Test G Post-Emergence Protocol; conditions: Ipomoea, post-emergence, 312 h; for pest or weed control at 15.625 g/ha: 15.625 g ai/ha, evaluated after 13 days (100=total damage to plant; 0=no damage to plant), read-out: Morningglory, Ivy-leaved damage rating; for pest or weed control at 62.5 g/ha: 62.5 g ai/ha, read-out: Morningglory, Ivy-leaved damage rating (100=total damage to plant; 0=no damage to plant); for pest or weed control at 62.5 g/ha / pest or weed control at 250 g/ha: evaluated after 13 days; for pest or weed control at 250 g/ha: 250 g ai/ha, read-out: damage to plant, Morningglory, Ivy-leaved (100=total damage to plant; 0=no damage to plant)
Method in brief: (§1)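 Scores run 0 (no damage) to 100 (total damage) and were taken 13 days after spraying. Plants had been raised in pots for 8 days under glasshouse control (24/16 °C, 14 h photoperiod, 65% humidity) and then treated at 15.625, 62.5 or 250 g/ha.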

[2] = system: velvetleaf (Abutilon theophrasti); assay: Test G Post-Emergence Protocol; conditions: Abutilon theophrasti, post-emergence, 312 h; for pest or weed control at 15.625 g/ha: 15.625 g ai/ha, evaluated after 13 days (100=total damage to plant; 0=no damage to plant), read-out: Velvetleaf damage rating; for pest or weed control at 62.5 g/ha: 62.5 g ai/ha, read-out: Velvetleaf damage rating (100=total damage to plant; 0=no damage to plant); for pest or weed control at 62.5 g/ha / pest or weed control at 250 g/ha: evaluated after 13 days; for pest or weed control at 250 g/ha: 250 g ai/ha, read-out: damage to plant, Velvetleaf (100=total damage to plant; 0=no damage to plant)
Method in brief: as §1

[3] = system: corn (Zea mays); assay: Test G Post-Emergence Protocol; conditions: Zea mays, post-emergence, 312 h; for plant injury at 15.625 g/ha: 15.625 g ai/ha, evaluated after 13 days (100=total damage to plant; 0=no damage to plant), read-out: Corn damage rating; for plant injury at 62.5 g/ha: 62.5 g ai/ha, read-out: Corn damage rating (100=total damage to plant; 0=no damage to plant); for plant injury at 62.5 g/ha / plant injury at 250 g/ha: evaluated after 13 days; for plant injury at 250 g/ha: 250 g ai/ha, read-out: damage to plant, Corn (100=total damage to plant; 0=no damage to plant)
Method in brief: as §1

[4] = system: redroot pigweed (Amaranthus retroflexus); assay: Test G Post-Emergence Protocol; conditions: Amaranthus retroflexus, post-emergence, 312 h; for pest or weed control at 15.625 g/ha: 15.625 g ai/ha, evaluated after 13 days (100=total damage to plant; 0=no damage to plant), read-out: Pigweed, Redroot damage rating; for pest or weed control at 62.5 g/ha: 62.5 g ai/ha, read-out: Pigweed, Redroot damage rating (100=total damage to plant; 0=no damage to plant); for pest or weed control at 62.5 g/ha / pest or weed control at 250 g/ha: evaluated after 13 days; for pest or weed control at 250 g/ha: 250 g ai/ha, read-out: damage to plant, Pigweed, Redroot (100=total damage to plant; 0=no damage to plant)
Method in brief: as §1

[5] = system: barnyardgrass (Echinochloa crus-galli); assay: Test G Post-Emergence Protocol; conditions: Echinochloa crus-galli, post-emergence, 312 h; for pest or weed control at 15.625 g/ha: 15.625 g ai/ha, evaluated after 13 days (100=total damage to plant; 0=no damage to plant), read-out: Barnyardgrass damage rating; for pest or weed control at 62.5 g/ha: 62.5 g ai/ha, read-out: Barnyardgrass damage rating (100=total damage to plant; 0=no damage to plant); for pest or weed control at 62.5 g/ha / pest or weed control at 250 g/ha: evaluated after 13 days; for pest or weed control at 250 g/ha: 250 g ai/ha, read-out: damage to plant, Barnyardgrass (100=total damage to plant; 0=no damage to plant)
Method in brief: as §1

[6] = system: giant foxtail (Setaria faberi); assay: Test G Post-Emergence Protocol; conditions: Setaria faberi, post-emergence, 312 h; for pest or weed control at 15.625 g/ha: 15.625 g ai/ha, evaluated after 13 days (100=total damage to plant; 0=no damage to plant), read-out: Foxtail, Giant damage rating; for pest or weed control at 62.5 g/ha: 62.5 g ai/ha, read-out: Foxtail, Giant damage rating (100=total damage to plant; 0=no damage to plant); for pest or weed control at 62.5 g/ha / pest or weed control at 250 g/ha: evaluated after 13 days; for pest or weed control at 250 g/ha: 250 g ai/ha, read-out: damage to plant, Foxtail, Giant (100=total damage to plant; 0=no damage to plant)
Method in brief: as §1

[7] = system: ivy-leaved morning glory (Ipomoea hederacea); assay: Test G Pre-Emergence Protocol; conditions: Ipomoea, pre-emergence, 312 h, evaluated after 13 days; for pest or weed control at 15.625 g/ha: 15.625 g ai/ha, read-out: Morning-glory, Ivy-leaved damage rating (100=total damage to plant; 0=no damage to plant); for pest or weed control at 62.5 g/ha: 62.5 g ai/ha, 100=total damage to plant, 0=no damage to plant, read-out: plant damage rating, Morningglory, Ivy-leaved; for pest or weed control at 250 g/ha: 250 g ai/ha, read-out: Morningglory, Ivy-leaved damage rating (100=total damage to plant; 0=no damage to plant)
Method in brief: (§2)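 Test compound in 0.5% Tween 20 acetone/water (50:50) was applied at three rates (15.625, 62.5, 250 g/ha) to soil sown one day earlier. After 13 days plants were scored for injury, where 0 means unaffected and 100 means completely damaged.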

[8] = system: velvetleaf (Abutilon theophrasti); assay: Test G Pre-Emergence Protocol; conditions: Abutilon theophrasti, pre-emergence, 312 h, evaluated after 13 days; for pest or weed control at 15.625 g/ha: 15.625 g ai/ha; for pest or weed control at 15.625 g/ha / pest or weed control at 250 g/ha: read-out: Velvetleaf damage rating (100=total damage to plant; 0=no damage to plant); for pest or weed control at 62.5 g/ha: 62.5 g ai/ha, 100=total damage to plant, 0=no damage to plant, read-out: plant damage rating, Velvetleaf; for pest or weed control at 250 g/ha: 250 g ai/ha
Method in brief: as §2

[9] = system: corn (Zea mays); assay: Test G Pre-Emergence Protocol; conditions: Zea mays, pre-emergence, 312 h, evaluated after 13 days; for plant injury at 15.625 g/ha: 15.625 g ai/ha; for plant injury at 15.625 g/ha / plant injury at 250 g/ha: read-out: Corn damage rating (100=total damage to plant; 0=no damage to plant); for plant injury at 62.5 g/ha: 62.5 g ai/ha, 100=total damage to plant, 0=no damage to plant, read-out: plant damage rating, Corn; for plant injury at 250 g/ha: 250 g ai/ha
Method in brief: as §2

[10] = system: redroot pigweed (Amaranthus retroflexus); assay: Test G Pre-Emergence Protocol; conditions: Amaranthus retroflexus, pre-emergence, 312 h, evaluated after 13 days; for pest or weed control at 15.625 g/ha: 15.625 g ai/ha; for pest or weed control at 15.625 g/ha / pest or weed control at 250 g/ha: read-out: Pigweed, Redroot damage rating (100=total damage to plant; 0=no damage to plant); for pest or weed control at 62.5 g/ha: 62.5 g ai/ha, 100=total damage to plant, 0=no damage to plant, read-out: plant damage rating, Pigweed, Redroot; for pest or weed control at 250 g/ha: 250 g ai/ha
Method in brief: as §2

[11] = system: barnyardgrass (Echinochloa crus-galli); assay: Test G Pre-Emergence Protocol; conditions: Echinochloa crus-galli, pre-emergence, 312 h, evaluated after 13 days; for pest or weed control at 15.625 g/ha: 15.625 g ai/ha, read-out: Barnyard grass damage rating (100=total damage to plant; 0=no damage to plant); for pest or weed control at 62.5 g/ha: 62.5 g ai/ha, 100=total damage to plant, 0=no damage to plant, read-out: plant damage rating, Barnyardgrass; for pest or weed control at 250 g/ha: 250 g ai/ha, read-out: Barnyardgrass damage rating (100=total damage to plant; 0=no damage to plant)
Method in brief: as §2

[12] = system: giant foxtail (Setaria faberi); assay: Test G Pre-Emergence Protocol; conditions: Setaria faberi, pre-emergence, 312 h, evaluated after 13 days; for pest or weed control at 15.625 g/ha: 15.625 g ai/ha; for pest or weed control at 15.625 g/ha / pest or weed control at 250 g/ha: read-out: Foxtail, Giant damage rating (100=total damage to plant; 0=no damage to plant); for pest or weed control at 62.5 g/ha: 62.5 g ai/ha, 100=total damage to plant, 0=no damage to plant, read-out: plant damage rating, Foxtail, Giant; for pest or weed control at 250 g/ha: 250 g ai/ha
Method in brief: as §2

Compound | pest or weed control at 15.625 g/ha [1] | pest or weed control at 62.5 g/ha [1] | pest or weed control at 250 g/ha [1] | pest or weed control at 15.625 g/ha [2] | pest or weed control at 62.5 g/ha [2] | pest or weed control at 250 g/ha [2] | plant injury at 15.625 g/ha [3] | plant injury at 62.5 g/ha [3] | plant injury at 250 g/ha [3] | pest or weed control at 15.625 g/ha [4] | pest or weed control at 62.5 g/ha [4] | pest or weed control at 250 g/ha [4] | pest or weed control at 15.625 g/ha [5] | pest or weed control at 62.5 g/ha [5] | pest or weed control at 250 g/ha [5] | pest or weed control at 15.625 g/ha [6] | pest or weed control at 62.5 g/ha [6] | pest or weed control at 250 g/ha [6] | pest or weed control at 15.625 g/ha [7] | pest or weed control at 62.5 g/ha [7] | further results
CN1C[C@@H](c2ccc(C(F)(F)F)cc2)[C@H](C(=O)Nc2ccccc2C#N)C1=O (racemic) [Compound 1599] | 50% | 60% | 50% | 0% | 30% | 40% | 0% | 0% | 40% | 0% | 50% | 50% | 10% | 70% | 70% | 60% | 80% | 80% | 10% | 10% | pest or weed control at 250 g/ha [7]: 10%; pest or weed control at 15.625 g/ha [8]: 0%; pest or weed control at 62.5 g/ha [8]: 30%; pest or weed control at 250 g/ha [8]: 20%; plant injury at 15.625 g/ha [9]: 0%; plant injury at 62.5 g/ha [9]: 10%; plant injury at 250 g/ha [9]: 40%; pest or weed control at 15.625 g/ha [10]: 0%; pest or weed control at 62.5 g/ha [10]: 40%; pest or weed control at 250 g/ha [10]: 70%; pest or weed control at 15.625 g/ha [11]: 0%; pest or weed control at 62.5 g/ha [11]: 70%; pest or weed control at 250 g/ha [11]: 70%; pest or weed control at 15.625 g/ha [12]: 20%; pest or weed control at 62.5 g/ha [12]: 60%; pest or weed control at 250 g/ha [12]: 80%
CN1C[C@@H](c2ccc(C(F)(F)F)cc2)[C@H](C(=O)Nc2ccc(Cl)cc2F)C1=O (racemic) [Compound 1602] | 10% | 50% | 50% | 0% | 20% | 40% | 0% | 0% | 20% | 0% | 50% | 70% | 0% | 20% | 40% | 0% | 60% | 80% | 0% | 0% | pest or weed control at 250 g/ha [7]: 0%; pest or weed control at 15.625 g/ha [8]: 0%; pest or weed control at 62.5 g/ha [8]: 0%; pest or weed control at 250 g/ha [8]: 10%; plant injury at 15.625 g/ha [9]: 0%; plant injury at 62.5 g/ha [9]: 0%; plant injury at 250 g/ha [9]: 0%; pest or weed control at 15.625 g/ha [10]: 0%; pest or weed control at 62.5 g/ha [10]: 30%; pest or weed control at 250 g/ha [10]: 40%; pest or weed control at 15.625 g/ha [11]: 0%; pest or weed control at 62.5 g/ha [11]: 0%; pest or weed control at 250 g/ha [11]: 40%; pest or weed control at 15.625 g/ha [12]: 0%; pest or weed control at 62.5 g/ha [12]: 30%; pest or weed control at 250 g/ha [12]: 70%

— patent US12077503B2, “Substituted cyclic amides and their use as herbicides” (FMC CORPORATION, priority 2015, dated 2024)
